Test results from US8501911B2, “Methods of reducing inflammation and mucus hypersecretion” (Biomarck Pharmaceuticals, Ltd, priority 1999, dated 2013).
Residues, ends and D or L forms follow the SMILES beside them. *: point of attachment. Myristoyl = CCCCCCCCCCCCCC(=O)*

Tests used:
human neutrophils = assay: Human neutrophil chemotactic migration assay; type: cell-based; conditions: test peptide 50 μM; for Neutrophil Migration (% Inhibition), LTB4: LTB4 100 nM; for Neutrophil Migration (% Inhibition), LTB4 / Neutrophil Migration (% Inhibition), fMLP: 0 = inactive; for Neutrophil Migration (% Inhibition), PAF: PAF 100 nM; for Neutrophil Migration (% Inhibition), fMLP: fMLP 100 nM
Experimental: Human neutrophils were isolated from heparinized whole blood collected from healthy adult donors via cephalic venipuncture by a slightly modified method as described by Akasaki et al., 1999 (Akasaki T, Koga H, and Sumimoto H., Phosphoinositide 3-kinase-dependent and -independent activation of the small GTPase Rac2 in human neutrophils, J. Biol. Chem. 274:18055-18059, 1999). The blood was mixed with dextran (final concentration 1.4% dextran) and then allowed to settle for 60 minutes, after which time the leukocyte rich plasma was collected and layered onto 5 mL of Ficoll-Paque PLUS in 15 ml, conical tubes. The plasma was centrifuged at 1800 rpm for 20 minutes at room temperature. The residual erythrocytes were lysed utilizing a hypotonic saline and the remaining neutrophils were re-suspended in Hank's balanced salt solution containing 20 mM HEPES and 8.9 mM sodium bicarbonate without calcium or magnesium (HBSS), yielding neutrophils that were greater than 98% pure and greater than 99% viable.
Neutrophil migration assay was performed according to the method described by Frevert C W, Wong V A, Goodman R B, Goodwin R, and Martin T R., Rapid fluorescence-based measurement of neutrophil migration in vitro, J. Immunol. Methods, 213:41-52, 1998. Human neutrophils were labeled with the fluorescent dye calcein for 30 minutes at room temperature. Cells were then washed and resuspended in a migration buffer containing HBSS with 2% FCS. Cells were treated with buffer alone or with the indicated test peptide (50 μM) for 30 minutes at 37° C. Treated cells (1×10^4 cells) were then placed on the upper side of a ChemoTx® chemotaxis plate (Neuroprobe, Gaithersburg, Md.) membrane (2 μm pore size). Lower wells of the plate were filled with migration buffer alone or with buffer containing fMLP (100 nM), LTB4 (100 nM), or PAF (100 nM). Wells containing 1×10^4 labeled cells were used as standards to calculate migration percentage. Cells were allowed to migrate for 1 hour at 37° C. After incubation, cells on the top of the filter were washed away with PBS. Followed by this, 0.5 mM EDTA was added to the top of the filter for 5 min to detach adherent cells and the membrane was again washed. The plate was then centrifuged at 1000 rpm for 1 min. The filter was removed and the fluorescence was measured in the lower wells (485 nm excitation, 530 nm emission wavelength) using an fMax fluorescence plate reader (Molecular Devices, Sunnyvale, Calif.). Percent migration was determined by dividing the fluorescence of each well by the fluorescence of the standard wells containing 1×10^4 labeled cells. A lesser number of migrated neutrophils in the bottom compartment is indicative of the test peptide being an inhibitor of inflammation.

U937 cells = assay: Inhibition of lysozyme release from U937 cells; type: cell-based, human; conditions: at 50 μM of test peptide; 100 nM PMA
Experimental: U937 is a monocyte-like human cell line which was purchased from American Type Culture Collection (ATCC) Rockville, Md. (catalog #CRL-15932). The cells were maintained in medium consisting of RPMI 1640 with glutamine supplemented with 10% heat inactivated fetal bovine serum (Gibco, Carlsbad, Calif.), 50 IU/mL, penicillin, 50 μg/mL streptomycin at 37° C. in an atmosphere containing 5% CO2. U937 cells were washed and resuspended at 2.5×10^6 cells/mL in phenol red free RPMI-1640 medium (Cellgro, Mediatech Inc.). Aliquots of cells in 15 mL plastic tubes were preincubated with indicated concentrations of test peptides (dissolved in PBS, pH 7.0) for 10 min at 37° C. The cells were then stimulated with 100 nM PMA for 1 hour. The cells were then centrifuged at 400×g for 5 min at 4° C. Lysozyme released from U937 cells was measured using spectrophotometric assay as described previously by Ralph et al., 1976. (Ralph P, Moore M A S, and Nilsson K. Lysozyme synthesis by established human and murine histocytic lymphoma cell lines. J. Exp. Med. 143:1528-33, 1976). Briefly. 100 μL of supernatants were placed in a 96-well microtiter plate and mixed with 100 μL of a Micrococcus lysodeikticus (Sigma-Aldrich) suspension (0.3 mg/mL in 0.1 M sodium phosphate buffer, pH 7.0), incubated for […] at room temperature and decrease in absorbance at 450 nm was measured. Chicken egg white lysozyme (EMD Biosciences) was used as a standard.

[1] = Solubility in 0.5 N saline; type: physicochemical; conditions: in 0.5 N Saline at pH 6.5
HL-60 clone 15 cells = assay: Inhibition of eosinophil peroxidase (EPO) release from HL-60 clone 15 cells; type: cell-based, human; conditions: at 50 μM of test peptide; 100 nM PMA 2 hours
Excerpt: The human promyelocytic cell line (Fischkoff S A, Graded increase in probability of eosinophilic differentiation of HL-60 promyelocytic leukemia cells induced by culture under alkaline conditions. Leuk. Res., 12:679-686, 1988; Rosenberg H F, Ackerman S J, Tenen D G. Human eosinophil cationic protein: molecular cloning of a cytotoxin and helminthotoxin with ribonuclease activity. J. Exp. Med., 170:163-176, 1989), HL-60 clone 15, is eosinophil-like promyelocytic human cell line which was purchased from American Type Culture Collection (ATCC) Rockville, Md. (catalog #CRL-1964). The cells were maintained in medium consisting of RPMI 1640 with glutamine supplemented with 10% heat inactivated fetal bovine serum (Gibco, Carlsbad, Calif.), 50 IU/mL penicillin, 50 μg/mL streptomycin, and 25 mM HEPES buffer, pH 7.8 at 37° C. in an atmosphere containing 5% CO2. Final differentiation of an eosinophil-like phenotype was initiated by culturing the cells at 5×10^5 cells/mL in the above medium containing 0.5 mM butyric acid (Sigma-Aldrich) for 5 days as previously described by Tiffany H L, Li F, and Rosenberg H F, Hyperglycosylation of eosinophil ribonuclease in a promyelocytic leukemia cell line and in differentiated peripheral blood progenitor cells J. Leukoc. Biol. 58: 49-54, 1995; and by Tiffany H L, Alkhatib G, Combadiere C, Berger E A, and Murphy P M., CC Chemokine receptors are differentially regulated by IL-5 during maturation of eosinophilic HL-60 cells. J. Immunol. 160:1385-1392, 1998. The cells were washed and resuspended at 2.5×10^6 per mL in phenol free RPMI-1640 (Cellgro; Mediatech Inc.). Aliquots of cells in 15 mL plastic tubes were preincubated with indicated concentration of test peptide (dissolved in PBS, pH 7.0) for 10 minutes followed by treatment of the cells with 100 nM PMA for 2 hours. The reaction was terminated by placing the tubes on ice and centrifugation of cells at 400 g for 5 min at 4° C. The eosinophil peroxidase (EPO) activity released by HL-60 clone 15 cells was assayed using TMB according to a previously established technique Paige et al (see above) and by Lacy P, Mahmudi-Azer S, Bablitz B, Hagen S C, Velazquez J R, Man S F, Moqbel R. Rapid mobilization of intracellularly stored RANTES in response to interferon-gamma in human eosinophils. Blood 94:23-32, 1999. Briefly, add 50 μL aliquots of the supernatant to 96-well microtiter plate followed by addition of 100 μL of the tetramethylbenzidine (TMB) substrate solution and incubate at room temperature for 15 minutes. The reaction was terminated by addition of 50 μL of 1.0 M sulfuric acid and absorbance was read at 450 nm in a spectrophotometric microplate reader (Molecular Devices, Sunnyvale, Calif.). The amount of secreted EPO was expressed as percentage of total content using the amount obtained in the same number of triton X-100-lysed cells.
Because standard EPO from HL-60 clone 15 cells was not available to use for quantification, we measured both released and intracellular (from lysed cells) levels of EPO, and expressed the released EPO as a percentage of total (intracellular and released) for each. To measure intracellular EPO in HL-60 clone 15 cells, appropriate aliquots of 0.1% triton X-100-lysed cells were taken for quantification of intracellular EPO as described above. All data are expressed as percentage of control to minimize variability between cultures.

[2] = system: MARCKS-related mucus secretion; assay: Inhibition of MARCKS-related mucus (mucin) secretion, Table 1; type: cell-based; conditions: at 100 μM of test peptide
NHBE cells = assay: Mucin secretion from NHBE cells exposed to kinase activators/reagents alone (ELISA); type: cell-based, human; conditions: 15 min
Experimental: To determine the potential role of PKC and/or PKG in the mucin secretory process, NHBE cells were exposed to the following two specific protein kinase activators: the phorbol ester, phorbol 12-myristate 13-acetate (PMA), for activation of PKC, and the nonhydrolyzable cGMP analogue, 8-Br-cGMP, for activation of PKG.
NHBE Cell Culture—Expansion, cryopreservation, and culture of NHBE cells in the air/liquid interface were performed as described previously. See, Krunkosky et al. Briefly, NHBE cells (Clonetics, San Diego, Calif.) were seeded in vented T75 tissue culture flasks (500 cells/cm^2) and cultured until cells reached 75-80% confluence. Cells were then dissociated by trypsin/EDTA and frozen as passage-2. Air/liquid interface culture was initiated by seeding passage-2 cells (2×10^4 cells/cm^2) in […]® clear culture inserts (Costar, Cambridge, Mass.) that were thinly coated with rat tail collagen, type 1 (Collaborative Biomedical, Bedford, Mass.). Cells were cultured submerged in medium in a humidified 95% air, 5% CO2 environment for 5-7 days until nearly confluent. At that time, the air/liquid interface was created by removing the apical medium and feeding cells basalaterally. Medium was renewed daily thereafter. Cells were cultured for an additional 14 days to allow for full differentiation.
Measurement of Mucin Secretion by ELISA—Before collection of “base line” and “test” mucin samples, the accumulated mucus at the apical surface of the cells was removed by washing with phosphate-buffered saline, pH 7.2. To collect the base-line secretion, cells were incubated with medium alone, and secreted mucin in the apical medium was collected and reserved. Cells were rested for 24 h and then exposed to medium containing the selected stimulatory and/or inhibitory reagents (or appropriate controls), after which secreted mucin was collected and reserved as the test sample. Incubation times for the base line and the test were the same but varied depending on the test reagent utilized. Both base line and test secretions were analyzed by ELISA using an antibody capture method as known in the art. See, e.g., Harlow et al., Antibodies: A Laboratory Manual, pp. 570-573, Cold Spring Harbor Laboratory, Cold Spring Harbor, N.Y. (1988). The primary antibody for this assay was 17Q2 (Babco, Richmond, Calif.), a monoclonal antibody that reacts specifically with a carbohydrate epitope on human airway mucins. […] Wright et al., Am. J. Physiol. 271, L854-L861 (1996). Levels of mucin secretion were reported as percentage of the medium control.
Mucus secreted from the airway epithelial cells in vitro after stimulation by activators was assessed using an ELISA (antibody capture method) (E. Harlow, D. Lane. “Antibodies: A Laboratory Manual.” New York: Cold Spring Harbor Laboratory Press, 1988), wherein the collected mucus is bound directly to the ELISA plate. Mucus was detected using an antibody raised against monkey airway mucus (Lin et al. Am J Respir Cell Mol Biol 1:41, 1989).

SMILES	Neutrophil Migration (% Inhibition), LTB4 (human neutrophils)	Neutrophil Migration (% Inhibition), PAF (human neutrophils)	Neutrophil Migration (% Inhibition), fMLP (human neutrophils)	% Inhibition Lysozyme (U937 cells)	solubility [1]	% Inhibition EPO (HL-60 clone 15 cells)	% Inhibition Mucin [2]	Mucin secretion as percent of control (NHBE cells; reagent 100 nM alone)	Mucin secretion as percent of control (NHBE cells; reagent 1 μM alone)	Mucin secretion as percent of control (NHBE cells; reagent 1 μM together with PMA 100 nM)
CCCCCCCCCCCCCC(=O)NCC(=O)N[C@@H](C)C(=O)N[C@@H](CCC(N)=O)C(=O)N[C@@H](Cc1ccccc1)C(=O)N[C@@H](CO)C(=O)N[C@@H](CCCCN)C(=O)N[C@H](C(=O)N[C@@H](C)C(=O)N[C@@H](C)C(=O)N[C@@H](CCCCN)C(=O)NCC(=O)N[C@@H](CCC(=O)O)C(=O)N[C@@H](C)C(=O)N[C@@H](C)C(=O)N[C@@H](C)C(=O)N[C@@H](CCC(=O)O)C(=O)O)[C@@H](C)O [SEQ ID NO: 9, N-myristoyl-GAQFSKTAAKGEAAAE] (Myristoyl-GAQFSKTAAKGEAAAE-OH; C-terminus assumed)	90.3%	72.7%	84.8%	99%	> 2000 µg/mL	30.3%	68%	–	–	–
CCCCCCCCCCCCCC(=O)O[C@@H]1[C@@H](C)[C@@]2(O)[C@@H](C=C(CO)C[C@@]3(O)C(=O)C(C)=C[C@@H]23)[C@@H]2C(C)(C)[C@]12OC(C)=O [4-alpha-PMA]	–	–	–	–	–	–	–	104%	–	–
CCCCCCCCCCCCCC(=O)NCC(=O)N[C@@H](C)C(=O)N[C@@H](CCC(N)=O)C(=O)N[C@@H](Cc1ccccc1)C(=O)N[C@@H](CO)C(=O)N[C@@H](CCCCN)C(=O)N[C@H](C(=O)N[C@@H](C)C(=O)N[C@@H](C)C(=O)N[C@@H](CCCCN)C(=O)NCC(=O)N[C@@H](CCC(=O)O)C(=O)N[C@@H](C)C(=O)N[C@@H](C)C(=O)N[C@@H](C)C(=O)N[C@@H](CCC(=O)O)C(=O)N[C@@H](CCCNC(=N)N)C(=O)N1CCC[C@H]1C(=O)NCC(=O)N[C@@H](CCC(=O)O)C(=O)O)[C@@H](C)O [SEQ ID NO: 5] (Myristoyl-GAQFSKTAAKGEAAAERPGE-OH; C-terminus assumed)	76.8%	88.4%	69.1%	99%	< 5000 µg/mL	33.6%	77%	–	–	–
Nc1nc2c(nc(Br)n2[C@@H]2O[C@@H]3COP(O)(=S)O[C@H]3[C@H]2O)c(=O)[nH]1 (some centres unmarked) [Rp-8-Br-cGMP]	–	–	–	–	–	–	–	–	100%	123%
